In patent US7118895B2, “Process for producing aglycon by using diglycosidase and flavor-improved food containing the aglycon and converting agent to be used in the process” (Amano Enzyme Inc., priority 2000, dated 2006):

How the values were obtained:
[1] = test system: Diglycosidase derived from A. fumigatus; assay: Reactivity toward various isoflavone glycosides (HPLC); type: biochemical, Aspergillus fumigatus; design: unit not given here; settings: 55 °C, pH 4.0
Protocol: (§1) Diglycosidase was diluted with an acetate buffer of pH 4.0 to prepare a 0.75 AU/mL enzyme solution. As references, a similar operation was conducted using β-glucosidase (manufactured by Fluka) derived from Aspergillus niger, β-glucosidase (manufactured by Sigma) derived from almond, β-xylosidase derived from pectinase G (manufactured by Amano Enzyme Inc.). Each of purified products of isoflavone glycosides (glycitin, acetylglycitin, malonylglycitin, daidzin, acetyldaidzin, malonyldaidzin, genistin, acetylgenistin, malonylgenistin, all manufactured by Nacalai Tesque, Inc.) was dissolved in methanol to prepare each 2 mM substrate solution. The reaction was carried out by mixing 10 μL of a substrate solution, 200 μL of 20 mM acetate buffer (pH 4.0), and 40 μL of each purified enzyme solution at a total liquid volume of 250 μL. The reaction was carried out at 55° C. and isolation of an aglycon isoflavone from an isoflavone glycoside in the reaction mixture was detected by HLPC at 0, 1, 3, and 6 hours of the reaction.
(§2) To the reaction mixture was added 700 μL of ethanol, followed by stirring and ultrasonication. After centrifugation at 15,000 rpm and 4° C. for 10 minutes, the supernatant was filtered through a filter and then the filtrate was applied to HPLC.
(§3) The isoflavone glycoside and aglycon isoflavone contained in the filtrate was separated and detected by a high performance liquid chromatography (HPLC, Shimadzu CLASS LC-10 system) using TOSOH TSK gel ODS-80TM column (manufactured by Tosoh Corporation). […] The absorbance at 260 nm was detected by a UV detector (Shimadzu, SPD-10AV). Using purified products (manufactured by Nacalai Tesque, Inc.) of the above isoflavone glycosides and aglycon isoflavones, the isoflavone glycoside and aglycon isoflavone were quantitatively determined according to a calibration curve method. By the way, unless otherwise stated, the measuring conditions of HPLC herein mean those described in the example.

Crude diglycosidase = assay: Examination of substrate concentration in the conversion into isoflavone aglycons by diglycosidase using soybean materials; type: biochemical, Penicillium multicolor IAM7153;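 as to Decomposition efficiency: ratio of each glycoside/aglycon within its isoflavone family: percent of the isoflavone family total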
In short: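 Soybean materials (roasted soy flour, soymilk, defatted soybean, concentrated soy protein) at 2–30% (w/v) in 20 mM acetate pH 4.0 were reacted with crude diglycosidase at 55° C with shaking; enzyme solution added was 1.88 AU/mL. Samples taken at 0, 1, 3 and 6 h were ethanol-extracted and analyzed by HPLC.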

[2] = test system: β-Glucosidase derived from A. niger; assay: Reactivity toward various isoflavone glycosides (HPLC); type: biochemical, Aspergillus niger; design: glucoside / aglycon: unit not given here; settings: 55 °C, pH 4.0
Protocol: as §1, §2, §3

- aglycon ([1]; Reaction time 0 h): 0
- glucoside ([1]; Reaction time 0 h): 100
- aglycon ([1]; Reaction time 1 h): 12.6
- glucoside ([1]; Reaction time 1 h): 87.4
- aglycon ([1]; Reaction time 3 h): 22.9
- glucoside ([1]; Reaction time 3 h): 77.1
- aglycon ([1]; Reaction time 6 h): 35.2
- glucoside ([1]; Reaction time 6 h): 64.8
- Decomposition efficiency: ratio of each glycoside/aglycon within its isoflavone family (Crude diglycosidase; concentrated soybean protein, substrate concentration 2%, heat treatment of enzyme no, reaction time 0 h): 42.9%
- Decomposition efficiency: ratio of each glycoside/aglycon within its isoflavone family (Crude diglycosidase; concentrated soybean protein, substrate concentration 2%, heat treatment of enzyme no, reaction time 1 h): 20.0%
- Decomposition efficiency: ratio of each glycoside/aglycon within its isoflavone family (Crude diglycosidase; concentrated soybean protein, substrate concentration 2%, heat treatment of enzyme no, reaction time 3 h): 8.3%
- Decomposition efficiency: ratio of each glycoside/aglycon within its isoflavone family (Crude diglycosidase; concentrated soybean protein, substrate concentration 2%, heat treatment of enzyme no, reaction time 6 h): 3.3%
- Decomposition efficiency: ratio of each glycoside/aglycon within its isoflavone family (Crude diglycosidase; concentrated soybean protein, substrate concentration 2%, heat treatment of enzyme yes, reaction time 6 h): 41.3%
- Decomposition efficiency: ratio of each glycoside/aglycon within its isoflavone family (Crude diglycosidase; concentrated soybean protein, substrate concentration 5%, heat treatment of enzyme no, reaction time 0 h): 43.1%
- Decomposition efficiency: ratio of each glycoside/aglycon within its isoflavone family (Crude diglycosidase; concentrated soybean protein, substrate concentration 5%, heat treatment of enzyme no, reaction time 1 h): 36.4%
- Decomposition efficiency: ratio of each glycoside/aglycon within its isoflavone family (Crude diglycosidase; concentrated soybean protein, substrate concentration 5%, heat treatment of enzyme no, reaction time 3 h): 26.3%
- Decomposition efficiency: ratio of each glycoside/aglycon within its isoflavone family (Crude diglycosidase; concentrated soybean protein, substrate concentration 5%, heat treatment of enzyme no, reaction time 6 h): 17.8%
- Decomposition efficiency: ratio of each glycoside/aglycon within its isoflavone family (Crude diglycosidase; concentrated soybean protein, substrate concentration 5%, heat treatment of enzyme yes, reaction time 6 h): 41.7%
- Decomposition efficiency: ratio of each glycoside/aglycon within its isoflavone family (Crude diglycosidase; concentrated soybean protein, substrate concentration 10%, heat treatment of enzyme no, reaction time 0 h): 43.4%
- Decomposition efficiency: ratio of each glycoside/aglycon within its isoflavone family (Crude diglycosidase; concentrated soybean protein, substrate concentration 10%, heat treatment of enzyme no, reaction time 1 h): 42.8%
- Decomposition efficiency: ratio of each glycoside/aglycon within its isoflavone family (Crude diglycosidase; concentrated soybean protein, substrate concentration 10%, heat treatment of enzyme no, reaction time 3 h): 37.3%
- Decomposition efficiency: ratio of each glycoside/aglycon within its isoflavone family (Crude diglycosidase; concentrated soybean protein, substrate concentration 10%, heat treatment of enzyme no, reaction time 6 h): 33.2%
- Decomposition efficiency: ratio of each glycoside/aglycon within its isoflavone family (Crude diglycosidase; concentrated soybean protein, substrate concentration 10%, heat treatment of enzyme yes, reaction time 6 h): 42.8%
- Decomposition efficiency: ratio of each glycoside/aglycon within its isoflavone family (Crude diglycosidase; concentrated soybean protein, substrate concentration 20%, heat treatment of enzyme no, reaction time 0 h): 43.7%
- Decomposition efficiency: ratio of each glycoside/aglycon within its isoflavone family (Crude diglycosidase; concentrated soybean protein, substrate concentration 20%, heat treatment of enzyme no, reaction time 1 h): 47.0%
- Decomposition efficiency: ratio of each glycoside/aglycon within its isoflavone family (Crude diglycosidase; concentrated soybean protein, substrate concentration 20%, heat treatment of enzyme no, reaction time 3 h): 44.6%
- Decomposition efficiency: ratio of each glycoside/aglycon within its isoflavone family (Crude diglycosidase; concentrated soybean protein, substrate concentration 20%, heat treatment of enzyme no, reaction time 6 h): 42.3%
- Decomposition efficiency: ratio of each glycoside/aglycon within its isoflavone family (Crude diglycosidase; concentrated soybean protein, substrate concentration 20%, heat treatment of enzyme yes, reaction time 6 h): 43.2%
- Decomposition efficiency: ratio of each glycoside/aglycon within its isoflavone family (Crude diglycosidase; concentrated soybean protein, substrate concentration 30%, heat treatment of enzyme no, reaction time 0 h): 43.5%
- Decomposition efficiency: ratio of each glycoside/aglycon within its isoflavone family (Crude diglycosidase; concentrated soybean protein, substrate concentration 30%, heat treatment of enzyme no, reaction time 1 h): 65.3%
- Decomposition efficiency: ratio of each glycoside/aglycon within its isoflavone family (Crude diglycosidase; concentrated soybean protein, substrate concentration 30%, heat treatment of enzyme no, reaction time 3 h): 61.0%
- Decomposition efficiency: ratio of each glycoside/aglycon within its isoflavone family (Crude diglycosidase; concentrated soybean protein, substrate concentration 30%, heat treatment of enzyme no, reaction time 6 h): 55.9%
- Decomposition efficiency: ratio of each glycoside/aglycon within its isoflavone family (Crude diglycosidase; concentrated soybean protein, substrate concentration 30%, heat treatment of enzyme yes, reaction time 6 h): 42.4%
- Decomposition efficiency: ratio of each glycoside/aglycon within its isoflavone family (Crude diglycosidase; roasted soy flour, substrate concentration 2%, heat treatment of enzyme no, reaction time 0 h): 44.7%
- Decomposition efficiency: ratio of each glycoside/aglycon within its isoflavone family (Crude diglycosidase; roasted soy flour, substrate concentration 2%, heat treatment of enzyme no, reaction time 1 h): 10.6%
- Decomposition efficiency: ratio of each glycoside/aglycon within its isoflavone family (Crude diglycosidase; roasted soy flour, substrate concentration 2%, heat treatment of enzyme no, reaction time 3 h): 5.0%
- Decomposition efficiency: ratio of each glycoside/aglycon within its isoflavone family (Crude diglycosidase; roasted soy flour, substrate concentration 2%, heat treatment of enzyme no, reaction time 6 h): 1.5%
- Decomposition efficiency: ratio of each glycoside/aglycon within its isoflavone family (Crude diglycosidase; roasted soy flour, substrate concentration 2%, heat treatment of enzyme yes, reaction time 6 h): 45.0%
- Decomposition efficiency: ratio of each glycoside/aglycon within its isoflavone family (Crude diglycosidase; roasted soy flour, substrate concentration 5%, heat treatment of enzyme no, reaction time 0 h): 44.7%
- Decomposition efficiency: ratio of each glycoside/aglycon within its isoflavone family (Crude diglycosidase; roasted soy flour, substrate concentration 5%, heat treatment of enzyme no, reaction time 1 h): 22.1%
- Decomposition efficiency: ratio of each glycoside/aglycon within its isoflavone family (Crude diglycosidase; roasted soy flour, substrate concentration 5%, heat treatment of enzyme no, reaction time 3 h): 15.2%
- Decomposition efficiency: ratio of each glycoside/aglycon within its isoflavone family (Crude diglycosidase; roasted soy flour, substrate concentration 5%, heat treatment of enzyme no, reaction time 6 h): 9.2%
- Decomposition efficiency: ratio of each glycoside/aglycon within its isoflavone family (Crude diglycosidase; roasted soy flour, substrate concentration 5%, heat treatment of enzyme yes, reaction time 6 h): 44.7%
- Decomposition efficiency: ratio of each glycoside/aglycon within its isoflavone family (Crude diglycosidase; roasted soy flour, substrate concentration 10%, heat treatment of enzyme no, reaction time 0 h): 38.2%
- Decomposition efficiency: ratio of each glycoside/aglycon within its isoflavone family (Crude diglycosidase; roasted soy flour, substrate concentration 10%, heat treatment of enzyme no, reaction time 1 h): 33.3%
- Decomposition efficiency: ratio of each glycoside/aglycon within its isoflavone family (Crude diglycosidase; roasted soy flour, substrate concentration 10%, heat treatment of enzyme no, reaction time 3 h): 25.3%
- Decomposition efficiency: ratio of each glycoside/aglycon within its isoflavone family (Crude diglycosidase; roasted soy flour, substrate concentration 10%, heat treatment of enzyme no, reaction time 6 h): 18.7%
- Decomposition efficiency: ratio of each glycoside/aglycon within its isoflavone family (Crude diglycosidase; roasted soy flour, substrate concentration 10%, heat treatment of enzyme yes, reaction time 6 h): 45.9%
- Decomposition efficiency: ratio of each glycoside/aglycon within its isoflavone family (Crude diglycosidase; roasted soy flour, substrate concentration 20%, heat treatment of enzyme no, reaction time 0 h): 46.1%
- Decomposition efficiency: ratio of each glycoside/aglycon within its isoflavone family (Crude diglycosidase; roasted soy flour, substrate concentration 20%, heat treatment of enzyme no, reaction time 1 h): 44.1%
- Decomposition efficiency: ratio of each glycoside/aglycon within its isoflavone family (Crude diglycosidase; roasted soy flour, substrate concentration 20%, heat treatment of enzyme no, reaction time 3 h): 35.8%
- Decomposition efficiency: ratio of each glycoside/aglycon within its isoflavone family (Crude diglycosidase; roasted soy flour, substrate concentration 20%, heat treatment of enzyme no, reaction time 6 h): 28.6%
- Decomposition efficiency: ratio of each glycoside/aglycon within its isoflavone family (Crude diglycosidase; roasted soy flour, substrate concentration 20%, heat treatment of enzyme yes, reaction time 6 h): 46.2%
- Decomposition efficiency: ratio of each glycoside/aglycon within its isoflavone family (Crude diglycosidase; roasted soy flour, substrate concentration 30%, heat treatment of enzyme no, reaction time 0 h): 46.7%
- Decomposition efficiency: ratio of each glycoside/aglycon within its isoflavone family (Crude diglycosidase; roasted soy flour, substrate concentration 30%, heat treatment of enzyme no, reaction time 1 h): 46.6%
- Decomposition efficiency: ratio of each glycoside/aglycon within its isoflavone family (Crude diglycosidase; roasted soy flour, substrate concentration 30%, heat treatment of enzyme no, reaction time 3 h): 41.4%
- Decomposition efficiency: ratio of each glycoside/aglycon within its isoflavone family (Crude diglycosidase; roasted soy flour, substrate concentration 30%, heat treatment of enzyme no, reaction time 6 h): 37.8%
- Decomposition efficiency: ratio of each glycoside/aglycon within its isoflavone family (Crude diglycosidase; roasted soy flour, substrate concentration 30%, heat treatment of enzyme yes, reaction time 6 h): 46.1%
- Decomposition efficiency of genistin family in defatted soybean (Crude diglycosidase; substrate concentration 2%, heat treatment of enzyme no, reaction time 0 h): 1.8
- Decomposition efficiency of genistin family in defatted soybean (Crude diglycosidase; substrate concentration 2%, heat treatment of enzyme no, reaction time 1 h): not detected
- Decomposition efficiency of genistin family in defatted soybean (Crude diglycosidase; substrate concentration 2%, heat treatment of enzyme no, reaction time 3 h): not detected
- Decomposition efficiency of genistin family in defatted soybean (Crude diglycosidase; substrate concentration 2%, heat treatment of enzyme no, reaction time 6 h): not detected
- Decomposition efficiency of genistin family in defatted soybean (Crude diglycosidase; substrate concentration 2%, heat treatment of enzyme yes, reaction time 6 h): 1.5
- Decomposition efficiency of genistin family in defatted soybean (Crude diglycosidase; substrate concentration 5%, heat treatment of enzyme no, reaction time 0 h): 1.9
- Decomposition efficiency of genistin family in defatted soybean (Crude diglycosidase; substrate concentration 5%, heat treatment of enzyme no, reaction time 1 h): 0.8
- Decomposition efficiency of genistin family in defatted soybean (Crude diglycosidase; substrate concentration 5%, heat treatment of enzyme no, reaction time 3 h): 0.5
- Decomposition efficiency of genistin family in defatted soybean (Crude diglycosidase; substrate concentration 5%, heat treatment of enzyme no, reaction time 6 h): 0.3
- Decomposition efficiency of genistin family in defatted soybean (Crude diglycosidase; substrate concentration 5%, heat treatment of enzyme yes, reaction time 6 h): 1.8
- Decomposition efficiency of genistin family in defatted soybean (Crude diglycosidase; substrate concentration 10%, heat treatment of enzyme no, reaction time 0 h): 1.9
- Decomposition efficiency of genistin family in defatted soybean (Crude diglycosidase; substrate concentration 10%, heat treatment of enzyme no, reaction time 1 h): 1.3
- Decomposition efficiency of genistin family in defatted soybean (Crude diglycosidase; substrate concentration 10%, heat treatment of enzyme no, reaction time 3 h): 0.9
- Decomposition efficiency of genistin family in defatted soybean (Crude diglycosidase; substrate concentration 10%, heat treatment of enzyme no, reaction time 6 h): 0.6
- Decomposition efficiency of genistin family in defatted soybean (Crude diglycosidase; substrate concentration 10%, heat treatment of enzyme yes, reaction time 6 h): 1.7
- aglycon ([2]; Reaction time 0 h): 0
- glucoside ([2]; Reaction time 0 h): 100
- aglycon ([2]; Reaction time 1 h): 1.4
- glucoside ([2]; Reaction time 1 h): 98.6
- aglycon ([2]; Reaction time 3 h): 3.3
- glucoside ([2]; Reaction time 3 h): 96.7
- aglycon ([2]; Reaction time 6 h): 6.2
- glucoside ([2]; Reaction time 6 h): 93.8
SMILES: CC(=O)OC[C@H]1O[C@@H](Oc2cc(O)c3c(=O)c(-c4ccc(O)cc4)coc3c2)[C@H](O)[C@@H](O)[C@@H]1O [acetylgenistin, 6″-O-acetylgenistin]
